In paper PMC9616851, “Structural mechanism of SGLT1 inhibitors” (Nature Communications, 2022):

Biological target: T1, hSGLT1 (Homo sapiens, UniProt P13866)
T1 construct: gene SLC5A1; hSGLT1GFP-MAP17nb: GFP fused between Q581 and E582 of hSGLT1; anti-GFP nanobody fused after E57 of MAP17 (1-57); in nanodisc; with MAP17
T1 sequence (P13866 1-581): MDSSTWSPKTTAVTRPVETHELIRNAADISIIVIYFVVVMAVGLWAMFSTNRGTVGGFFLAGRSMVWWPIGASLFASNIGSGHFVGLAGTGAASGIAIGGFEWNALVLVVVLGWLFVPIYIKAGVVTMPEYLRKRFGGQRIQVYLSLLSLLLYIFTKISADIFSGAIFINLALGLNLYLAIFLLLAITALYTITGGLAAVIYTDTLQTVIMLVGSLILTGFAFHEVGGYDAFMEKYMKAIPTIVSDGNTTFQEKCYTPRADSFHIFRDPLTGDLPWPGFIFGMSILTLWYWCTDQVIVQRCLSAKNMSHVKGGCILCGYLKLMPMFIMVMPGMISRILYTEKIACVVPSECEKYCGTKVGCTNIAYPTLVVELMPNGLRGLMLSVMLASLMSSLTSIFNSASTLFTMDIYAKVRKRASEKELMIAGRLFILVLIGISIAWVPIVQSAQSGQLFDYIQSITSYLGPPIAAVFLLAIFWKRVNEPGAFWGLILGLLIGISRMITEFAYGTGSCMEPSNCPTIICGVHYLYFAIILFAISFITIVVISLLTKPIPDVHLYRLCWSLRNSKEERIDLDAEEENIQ
T1 sequence (P13866 582-664): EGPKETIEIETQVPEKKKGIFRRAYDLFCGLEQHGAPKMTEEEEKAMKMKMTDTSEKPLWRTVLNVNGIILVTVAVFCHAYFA
T1 sequence (Q13113 1-57 partner): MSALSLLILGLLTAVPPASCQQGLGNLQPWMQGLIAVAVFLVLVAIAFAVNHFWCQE
Assay: cryo-EM structure at […] Å; 1-NBD-glucose uptake inhibition in cells (IC50 […] for this construct, […] for non-tagged hSGLT1)
Format: cell-based

IC50: 2.3 nM
Structure (SMILES): CS[C@H]1O[C@@H](c2ccc(C)c(Cc3ccc(CCCC(=O)NC(C)(C)C(=O)NCCN(C)C)cc3)c2)[C@H](O)[C@@H](O)[C@@H]1O [LX2761]
